Values quoted from earlier work in patent US20230346989A1, “FLUOROCARBON NANOEMULSIONS AND USES THEREOF IN IMAGING” (The Regents of the University of California, priority 2020, published 2023).

Tests used:
[1] = in vivo; cited from earlier work
[2] = system: tumors; details: depending on the model; cited from earlier work

FC(F)(F)C(F)(F)C(F)(F)C(F)(F)C(F)(F)C(F)(F)C(F)(F)C(F)(F)Br [PFOB, perfluorooctyl bromide]
organ-retention half-life [1]: 122 h

C[C@H](NC(=O)c1c(N)nn2cccnc12)c1cc2cccc(C#Cc3cnn(C)c3)c2c(=O)n1-c1ccccc1 [IPI549]
suppression of tumor growth [2]: 50-100%
